Where two headings read alike, the source gives them in different places.
Experiments:
CAMKKα = CAMKKα (Homo sapiens, UniProt Q8N5S9); assay: Kinase screen: CAMKKa assay; type: biochemical; settings: read-out: Mean Remaining Enzyme Activity (%)
Method: Generally, the same procedure was used for all assays. Since the total assay volume was 25.5 microliters, 0.5 microliters of inhibitors at 51× assay concentration were added to the plates before any other addition.
The basic procedure was to add 0.5 microliters inhibitor/control in DMSO to plate. Fifteen microliters of enzyme/substrate/buffer mix were added and incubated for 5 min. Ten microliters MgATP at the relevant concentration were added and incubated for 30 min. The assay was stopped by adding 5 microliters of 3% orthophosphoric acid. The assay was transferred to a p81 filter plate and read in a scintillation counter of 30 sec/well. Note that this assay procedure was not followed for MKK1, which instead involved a two-step assay, and PKC alpha, which required the addition of lipid vesicles.
CAMKKa assay: 5-20 mU of CAMKKa (diluted in 50 mM Tris (pH 7.5), 0.1 mM EGTA, 1 mg/ml BSA, 0.1%, b-Mercaptoethanol) was assayed against substrate peptide ([…]) (SEQ ID NO: 31) in a final volume of 25.5 μl containing 50 mM Tris (pH 7.5), 0.1 mM EGTA, 0.5 mM CaCl2, 0.3 μM calmodulin, 0.1%, b-Mercaptoethanol, 300 μM substrate peptide, 10 mM magnesium acetate and 0.02 mM [33P-g-ATP] (500-1000 cpm/pmole) and incubated for 30 mins at room temperature. Assays were stopped by addition of 5 μl of 0.5M (3%) orthophosphoric acid. […]

SK-MEL-2 [1] = system: SK-MEL-2
HCT-116 = assay: cells; settings: Homo sapiens
SK-OV-3 = assay: cells; settings: Homo sapiens
SK-MEL-2 [2] = assay: cells; settings: Homo sapiens
OVCAR-8 = assay: cells; settings: Homo sapiens
LOX IMVI = assay: cells; settings: Homo sapiens
RPMI-8226 = assay: cells; settings: Homo sapiens
SN12C = settings: for Mean Optical Densities / Percent Growth: SN12C
UO-31 = assay: cells; settings: Homo sapiens
U251 = assay: cells; settings: Homo sapiens
M14 = assay: cells; settings: Homo sapiens
[3] = SK-MEL-2, log10 concentration −4.0
[4] = SK-MEL-2, log10 concentration −5.0
[5] = SK-MEL-2, log10 concentration −6.0
[6] = SK-MEL-2, log10 concentration −7.0
[7] = SK-MEL-2, log10 concentration −8.0
[8] = SF-295, log10 concentration −4.0
[9] = SF-295, log10 concentration −5.0
[10] = SF-295, log10 concentration −6.0
[11] = SF-295, log10 concentration −7.0
[12] = SF-295, log10 concentration −8.0
[13] = UACC-62, log10 concentration −4.0
[14] = UACC-62, log10 concentration −5.0
[15] = UACC-62, log10 concentration −6.0
[16] = UACC-62, log10 concentration −7.0
[17] = UACC-62, log10 concentration −8.0
[18] = NCI-H522, log10 concentration −4.0
[19] = NCI-H522, log10 concentration −5.0
[20] = NCI-H522, log10 concentration −6.0
[21] = NCI-H522, log10 concentration −7.0
[22] = NCI-H522, log10 concentration −8.0
[23] = NCI-H226, log10 concentration −4.0
[24] = NCI-H226, log10 concentration −5.0
[25] = NCI-H226, log10 concentration −6.0
[26] = NCI-H226, log10 concentration −7.0
[27] = NCI-H226, log10 concentration −8.0

Compound: CC(C)c1cnn2c(NCc3ccccc3)cc(NCCCCCCCN)nc12 [BS-181]
- remaining activity at 10 µM (CAMKKα): 57%

Compound: CC(C)c1cnn2c(NCc3ccccc3)cc(N[C@@H](CO)[C@H](O)CO)nc12 [ICEC0318, (3S)-3-(7-(Benzylamino)-3-isopropylpyrazolo[1,5-a]pyrimidin-5-ylamino)butane-1,2,4-triol]
- TGI (SK-MEL-2 [1]; SK-MEL-2 (Melanoma)): 8.22E−5
- Mean Optical Densities (SK-MEL-2 [1]; [3]): 1.061
- Percent Growth (SK-MEL-2 [1]; [3]): −1%
- Mean Optical Densities (SK-MEL-2 [1]; [4]): 1.218
- Percent Growth (SK-MEL-2 [1]; [4]): 12%
- Mean Optical Densities (SK-MEL-2 [1]; [5]): 1.290
- Percent Growth (SK-MEL-2 [1]; [5]): 18%
- Mean Optical Densities (SK-MEL-2 [1]; [6]): 2.275
- Percent Growth (SK-MEL-2 [1]; [6]): 99%
- Mean Optical Densities (SK-MEL-2 [1]; [7]): 2.282
- Percent Growth (SK-MEL-2 [1]; [7]): 100%
- GI50 (HCT-116; HCT-116): 161 nM
- CC50 (HCT-116; HCT-116, read-out: LC50): > 100000 nM
- GI50 (SK-OV-3; SK-OV-3): 565 nM
- CC50 (SK-OV-3; SK-OV-3, read-out: LC50): > 100000 nM
- GI50 (SK-MEL-2 [2]; SK-MEL-2): 404 nM
- CC50 (SK-MEL-2 [2]; SK-MEL-2, read-out: LC50): > 100000 nM
- GI50 (OVCAR-8; OVCAR-8): 340 nM
- CC50 (OVCAR-8; OVCAR-8, read-out: LC50): > 100000 nM
- TGI (SF-295; SF-295 (CNS Cancer)): 3.10E−5
- Mean Optical Densities (SF-295; [8]): 0.371
- Percent Growth (SF-295; [8]): −4%
- Mean Optical Densities (SF-295; [9]): 0.427
- Percent Growth (SF-295; [9]): 4%
- Mean Optical Densities (SF-295; [10]): 0.447
- Percent Growth (SF-295; [10]): 6%
- Mean Optical Densities (SF-295; [11]): 1.288
- Percent Growth (SF-295; [11]): 83%
- Mean Optical Densities (SF-295; [12]): 1.492
- Percent Growth (SF-295; [12]): 101%
- GI50 (LOX IMVI): 171 nM
- CC50 (LOX IMVI; read-out: LC50): > 100000 nM
- GI50 (RPMI-8226; RPMI-8226): 227 nM
- CC50 (RPMI-8226; RPMI-8226, read-out: LC50): > 100000 nM
- TGI (SN12C; SN12C (Renal Cancer)): >1.00E−4
- Mean Optical Densities (SN12C; log10 concentration −4.0): 0.531
- Percent Growth (SN12C; log10 concentration −4.0): 11%
- Mean Optical Densities (SN12C; log10 concentration −5.0): 0.578
- Percent Growth (SN12C; log10 concentration −5.0): 14%
- Mean Optical Densities (SN12C; log10 concentration −6.0): 0.620
- Percent Growth (SN12C; log10 concentration −6.0): 18%
- Mean Optical Densities (SN12C; log10 concentration −7.0): 1.515
- Percent Growth (SN12C; log10 concentration −7.0): 84%
- Mean Optical Densities (SN12C; log10 concentration −8.0): 1.702
- Percent Growth (SN12C; log10 concentration −8.0): 98%
- GI50 (UO-31; UO-31): 289 nM
- CC50 (UO-31; UO-31, read-out: LC50): > 100000 nM
- TGI (UACC-62; UACC-62 (Melanoma)): 3.16E−7
- Mean Optical Densities (UACC-62; [13]): 0.078
- Percent Growth (UACC-62; [13]): −90%
- Mean Optical Densities (UACC-62; [14]): 0.165
- Percent Growth (UACC-62; [14]): −78%
- Mean Optical Densities (UACC-62; [15]): 0.142
- Percent Growth (UACC-62; [15]): −81%
- Mean Optical Densities (UACC-62; [16]): 1.821
- Percent Growth (UACC-62; [16]): 81%
- Mean Optical Densities (UACC-62; [17]): 2.110
- Percent Growth (UACC-62; [17]): 102%
- GI50 (U251; U-251): 261 nM
- CC50 (U251; U-251, read-out: LC50): > 100000 nM
- GI50 (M14; M14): 305 nM
- CC50 (M14; M14, read-out: LC50): 45200 nM
- TGI (NCI-H522; NCI-H522 (Non-Small Cell Lung Cancer)): 2.13E−6
- Mean Optical Densities (NCI-H522; [18]): 0.741
- Percent Growth (NCI-H522; [18]): −17%
- Mean Optical Densities (NCI-H522; [19]): 0.640
- Percent Growth (NCI-H522; [19]): −29%
- Mean Optical Densities (NCI-H522; [20]): 1.075
- Percent Growth (NCI-H522; [20]): 14%
- Mean Optical Densities (NCI-H522; [21]): 2.156
- Percent Growth (NCI-H522; [21]): 99%
- Mean Optical Densities (NCI-H522; [22]): 2.185
- Percent Growth (NCI-H522; [22]): 101%
- Mean Optical Densities (NCI-H226; [23]): 0.725
- Percent Growth (NCI-H226; [23]): 4%
- Mean Optical Densities (NCI-H226; [24]): 0.613
- Percent Growth (NCI-H226; [24]): −9%
- Mean Optical Densities (NCI-H226; [25]): 0.662
- Percent Growth (NCI-H226; [25]): −1%
- Mean Optical Densities (NCI-H226; [26]): 1.920
- Percent Growth (NCI-H226; [26]): 89%
- Mean Optical Densities (NCI-H226; [27]): 2.076
- Percent Growth (NCI-H226; [27]): 101%
- TGI (HT29; HT29 (Colon Cancer)): 3.66E−5
- Mean Optical Densities (HT29; HT29, log10 concentration −4.0): 0.190
- Percent Growth (HT29; HT29, log10 concentration −4.0): −2%
- Mean Optical Densities (HT29; HT29, log10 concentration −5.0): 0.216
- Percent Growth (HT29; HT29, log10 concentration −5.0): 2%
- Mean Optical Densities (HT29; HT29, log10 concentration −6.0): 0.247
- Percent Growth (HT29; HT29, log10 concentration −6.0): 5%
- Mean Optical Densities (HT29; HT29, log10 concentration −7.0): 1.345
- Percent Growth (HT29; HT29, log10 concentration −7.0): 100%
- Mean Optical Densities (HT29; HT29, log10 concentration −8.0): 1.394
- Percent Growth (HT29; HT29, log10 concentration −8.0): 105%
